Laboratory results published in patent US20260356819A1, “OXOISOINDOLINYL-SUBSTITUTED […] DERIVATIVE AND USE THEREOF” (GLUETACS THERAPEUTICS (SHANGHAI) CO., LTD., priority 2023, published 2026).

Tests used:
Assay type in all cases: cell-based
Conditions in all cases: compounds at 50 nM and 500 nM
GSPT1 = biological target: T1, GSPT1 (Homo sapiens, UniProt P15170+Q96SW2); assay: Western blot degradation of GSPT1 in hPBMCs (24 h)
T1 construct: The supernatant was aspirated as the extracted total cell protein; endogenous in cells; host or cells: human peripheral blood mononuclear cells (hPBMCs)
T1 sequence (P15170 whole entry): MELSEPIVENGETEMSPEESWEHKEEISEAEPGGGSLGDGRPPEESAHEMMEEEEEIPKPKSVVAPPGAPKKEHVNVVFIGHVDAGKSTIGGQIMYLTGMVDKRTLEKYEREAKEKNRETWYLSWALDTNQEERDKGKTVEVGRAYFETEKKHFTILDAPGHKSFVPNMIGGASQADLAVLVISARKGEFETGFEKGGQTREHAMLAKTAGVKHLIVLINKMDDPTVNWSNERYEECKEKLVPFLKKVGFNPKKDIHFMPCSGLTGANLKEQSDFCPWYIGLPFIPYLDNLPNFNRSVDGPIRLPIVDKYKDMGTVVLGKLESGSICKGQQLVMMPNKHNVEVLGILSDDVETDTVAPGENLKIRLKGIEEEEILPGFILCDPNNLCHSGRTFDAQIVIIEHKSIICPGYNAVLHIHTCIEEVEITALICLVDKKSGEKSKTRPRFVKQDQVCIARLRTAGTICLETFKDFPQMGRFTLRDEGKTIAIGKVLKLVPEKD
T1 sequence (Q96SW2 whole entry): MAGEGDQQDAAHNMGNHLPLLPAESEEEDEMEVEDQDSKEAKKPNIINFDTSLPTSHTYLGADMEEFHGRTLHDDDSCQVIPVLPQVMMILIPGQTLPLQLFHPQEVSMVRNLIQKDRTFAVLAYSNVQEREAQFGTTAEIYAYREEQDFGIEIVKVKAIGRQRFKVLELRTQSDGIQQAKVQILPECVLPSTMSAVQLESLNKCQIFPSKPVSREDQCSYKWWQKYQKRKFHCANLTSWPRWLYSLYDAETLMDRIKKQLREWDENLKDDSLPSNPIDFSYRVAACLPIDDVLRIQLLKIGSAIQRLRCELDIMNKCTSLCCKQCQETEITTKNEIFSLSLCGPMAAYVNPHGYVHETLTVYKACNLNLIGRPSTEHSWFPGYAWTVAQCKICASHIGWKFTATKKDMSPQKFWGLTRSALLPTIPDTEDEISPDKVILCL
T1 sequence (Q16531 whole entry partner): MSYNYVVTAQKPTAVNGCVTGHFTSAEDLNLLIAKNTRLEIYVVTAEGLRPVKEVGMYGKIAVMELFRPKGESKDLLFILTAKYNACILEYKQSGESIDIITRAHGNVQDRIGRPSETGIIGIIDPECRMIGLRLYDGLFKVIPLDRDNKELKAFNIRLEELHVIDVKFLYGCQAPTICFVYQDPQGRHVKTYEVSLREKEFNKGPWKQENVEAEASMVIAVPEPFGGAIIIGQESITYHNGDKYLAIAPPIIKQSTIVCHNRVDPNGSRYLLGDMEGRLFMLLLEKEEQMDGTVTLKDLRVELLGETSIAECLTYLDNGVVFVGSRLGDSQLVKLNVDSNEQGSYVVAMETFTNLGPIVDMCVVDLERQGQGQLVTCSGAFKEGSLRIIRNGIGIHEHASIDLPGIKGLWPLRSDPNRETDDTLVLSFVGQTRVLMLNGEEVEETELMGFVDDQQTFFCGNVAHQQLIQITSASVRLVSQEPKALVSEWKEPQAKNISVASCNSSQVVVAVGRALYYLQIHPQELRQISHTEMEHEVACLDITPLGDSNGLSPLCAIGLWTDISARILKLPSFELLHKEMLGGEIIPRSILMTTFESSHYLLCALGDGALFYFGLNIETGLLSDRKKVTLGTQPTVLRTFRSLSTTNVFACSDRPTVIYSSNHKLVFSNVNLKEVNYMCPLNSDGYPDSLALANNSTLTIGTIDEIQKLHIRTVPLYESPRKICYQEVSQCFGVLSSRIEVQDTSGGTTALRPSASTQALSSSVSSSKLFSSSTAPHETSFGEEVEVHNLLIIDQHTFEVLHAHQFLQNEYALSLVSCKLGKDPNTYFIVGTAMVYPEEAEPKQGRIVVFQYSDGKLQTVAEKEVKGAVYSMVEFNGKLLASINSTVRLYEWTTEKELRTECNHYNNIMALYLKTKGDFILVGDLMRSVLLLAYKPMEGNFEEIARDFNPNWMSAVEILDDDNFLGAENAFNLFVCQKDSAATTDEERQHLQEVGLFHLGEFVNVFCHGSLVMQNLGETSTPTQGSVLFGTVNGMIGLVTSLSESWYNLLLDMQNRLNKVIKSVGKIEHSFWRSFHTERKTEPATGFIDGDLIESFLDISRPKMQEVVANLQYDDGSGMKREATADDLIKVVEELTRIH
Method in brief: (§1)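 Immunoblot densitometry quantifies target loss in hPBMCs after a 24 h compound exposure (50 nM, 500 nM). Percent remaining is normalised band intensity; DC50 is the concentration giving half the DMSO-control band grayscale.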

CK1α = biological target: T2, CK1α (Homo sapiens, UniProt P48729+Q96SW2); assay: Western blot degradation of CK1α in hPBMCs (24 h)
T2 construct: The supernatant was aspirated as the extracted total cell protein; endogenous in cells; host or cells: human peripheral blood mononuclear cells (hPBMCs)
Method in brief: as §1

IKZF2 = biological target: T3, IKZF2 (Homo sapiens, UniProt Q96SW2+Q9UKS7); assay: Western blot degradation of IKZF2 in hPBMCs (24 h)
T3 construct: The supernatant was aspirated as the extracted total cell protein; endogenous in cells; host or cells: human peripheral blood mononuclear cells (hPBMCs)
T3 sequence (Q9UKS7 whole entry): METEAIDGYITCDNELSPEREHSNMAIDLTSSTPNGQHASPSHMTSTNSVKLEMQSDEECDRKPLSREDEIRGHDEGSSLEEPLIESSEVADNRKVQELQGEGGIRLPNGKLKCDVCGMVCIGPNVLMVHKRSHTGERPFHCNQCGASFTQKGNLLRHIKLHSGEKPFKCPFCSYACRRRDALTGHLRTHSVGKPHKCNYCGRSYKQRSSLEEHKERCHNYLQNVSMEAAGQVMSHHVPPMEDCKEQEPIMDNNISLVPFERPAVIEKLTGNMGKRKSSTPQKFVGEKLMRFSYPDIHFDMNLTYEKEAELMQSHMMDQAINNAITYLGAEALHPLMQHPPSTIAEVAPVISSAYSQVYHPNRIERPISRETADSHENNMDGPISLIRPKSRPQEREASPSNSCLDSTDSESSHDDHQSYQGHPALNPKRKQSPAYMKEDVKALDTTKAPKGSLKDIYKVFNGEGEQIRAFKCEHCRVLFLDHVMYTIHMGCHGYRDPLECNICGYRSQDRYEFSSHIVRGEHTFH
T3 sequence (Q96SW2 whole entry): as the sequence (Q96SW2 whole entry) above
T3 sequence (Q16531 whole entry partner): as the sequence (Q16531 whole entry partner) above
Method in brief: as §1

WEE1 = biological target: T4, WEE1 (Homo sapiens, UniProt P30291+Q96SW2); assay: Western blot degradation of WEE1 in hPBMCs (24 h)
T4 construct: The supernatant was aspirated as the extracted total cell protein; endogenous in cells; host or cells: human peripheral blood mononuclear cells (hPBMCs)
T4 sequence (P30291 whole entry): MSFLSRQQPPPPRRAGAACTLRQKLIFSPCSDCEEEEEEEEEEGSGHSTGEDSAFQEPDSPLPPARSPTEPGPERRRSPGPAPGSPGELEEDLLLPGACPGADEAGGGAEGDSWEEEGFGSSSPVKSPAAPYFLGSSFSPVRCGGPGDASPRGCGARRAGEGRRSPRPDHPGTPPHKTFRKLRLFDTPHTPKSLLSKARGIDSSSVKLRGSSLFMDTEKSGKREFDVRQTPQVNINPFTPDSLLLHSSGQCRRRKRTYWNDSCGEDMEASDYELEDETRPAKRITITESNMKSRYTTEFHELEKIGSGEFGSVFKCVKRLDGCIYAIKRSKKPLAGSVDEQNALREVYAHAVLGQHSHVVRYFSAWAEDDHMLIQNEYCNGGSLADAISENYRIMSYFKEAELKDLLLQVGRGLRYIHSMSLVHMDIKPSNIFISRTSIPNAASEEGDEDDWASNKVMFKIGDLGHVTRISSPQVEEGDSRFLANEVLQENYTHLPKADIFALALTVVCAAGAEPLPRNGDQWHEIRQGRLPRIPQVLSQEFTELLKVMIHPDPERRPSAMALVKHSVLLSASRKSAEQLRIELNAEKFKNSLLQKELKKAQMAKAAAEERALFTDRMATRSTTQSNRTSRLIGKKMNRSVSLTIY
T4 sequence (Q96SW2 whole entry): as the sequence (Q96SW2 whole entry) above
T4 sequence (Q16531 whole entry partner): as the sequence (Q16531 whole entry partner) above
Method in brief: as §1

IKZF1 = biological target: T5, IKZF1 (Homo sapiens, UniProt Q13422+Q96SW2); assay: Western blot degradation of IKZF1 in hPBMCs (24 h)
T5 construct: The supernatant was aspirated as the extracted total cell protein; endogenous in cells; host or cells: human peripheral blood mononuclear cells (hPBMCs)
T5 sequence (Q13422 whole entry): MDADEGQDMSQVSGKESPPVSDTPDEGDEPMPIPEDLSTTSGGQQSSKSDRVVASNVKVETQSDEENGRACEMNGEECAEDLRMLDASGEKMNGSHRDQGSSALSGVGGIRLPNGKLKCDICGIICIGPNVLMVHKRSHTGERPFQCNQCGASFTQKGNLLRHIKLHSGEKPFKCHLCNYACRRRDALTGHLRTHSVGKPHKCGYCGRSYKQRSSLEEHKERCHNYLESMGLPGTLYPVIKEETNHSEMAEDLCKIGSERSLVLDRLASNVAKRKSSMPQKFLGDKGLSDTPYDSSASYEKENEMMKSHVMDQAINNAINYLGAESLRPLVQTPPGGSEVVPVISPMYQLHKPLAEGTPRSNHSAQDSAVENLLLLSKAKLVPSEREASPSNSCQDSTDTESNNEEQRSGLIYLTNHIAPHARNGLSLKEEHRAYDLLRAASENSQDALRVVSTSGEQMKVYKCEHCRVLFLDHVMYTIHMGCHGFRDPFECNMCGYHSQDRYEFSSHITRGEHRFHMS
T5 sequence (Q96SW2 whole entry): as the sequence (Q96SW2 whole entry) above
T5 sequence (Q16531 whole entry partner): as the sequence (Q16531 whole entry partner) above
Method in brief: as §1

IKZF3 = biological target: T6, IKZF3 (Homo sapiens, UniProt Q96SW2+Q9UKT9); assay: Western blot degradation of IKZF3 in hPBMCs (24 h)
T6 construct: The supernatant was aspirated as the extracted total cell protein; endogenous in cells; host or cells: human peripheral blood mononuclear cells (hPBMCs)
T6 sequence (Q9UKT9 whole entry): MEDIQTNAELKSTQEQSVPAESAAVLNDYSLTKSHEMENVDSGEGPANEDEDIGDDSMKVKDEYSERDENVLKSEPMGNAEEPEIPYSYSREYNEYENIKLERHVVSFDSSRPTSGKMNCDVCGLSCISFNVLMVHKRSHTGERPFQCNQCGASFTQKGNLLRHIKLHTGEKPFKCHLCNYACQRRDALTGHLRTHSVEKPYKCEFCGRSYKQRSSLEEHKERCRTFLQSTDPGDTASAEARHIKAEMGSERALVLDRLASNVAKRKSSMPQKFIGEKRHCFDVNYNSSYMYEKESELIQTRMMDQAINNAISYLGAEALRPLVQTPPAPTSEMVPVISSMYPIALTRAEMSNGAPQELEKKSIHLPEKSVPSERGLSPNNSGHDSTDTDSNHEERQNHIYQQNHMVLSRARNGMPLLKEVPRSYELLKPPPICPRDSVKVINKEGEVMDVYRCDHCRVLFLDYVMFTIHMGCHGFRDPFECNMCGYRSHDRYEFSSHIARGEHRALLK
T6 sequence (Q96SW2 whole entry): as the sequence (Q96SW2 whole entry) above
T6 sequence (Q16531 whole entry partner): as the sequence (Q16531 whole entry partner) above
Method in brief: as §1

Row | Compound | GSPT1 substrate protein remaining % (GSPT1) | CK1α substrate protein remaining % (CK1α) | IKZF2 substrate protein remaining % (IKZF2) | WEE1 substrate protein remaining % (WEE1) | IKZF1 substrate protein remaining % (IKZF1) | IKZF3 substrate protein remaining % (IKZF3)
1 | Cc1nc(C2CCN(Cc3ccc4c(c3)CN(N3CCC(=O)NC3=O)C4=O)CC2)c2c3c(sc2n1)CCC3 [GT-08114, 1-(5-((4-(2-methyl-6,7-dihydro-5H-cyclopenta[4,5]thieno[2,3-d]pyrimidin-4-yl)piperidin-1-yl)methyl)-1-oxoisoindolin-2-yl)dihydropyrimidine-2,4(1H,3H)-dione] | A (0% ≤ substrate protein remaining % ≤80%) | B (80%< substrate protein remaining % ≤100%) | B (80%< substrate protein remaining % ≤100%) | B (80%< substrate protein remaining % ≤100%) | B (80%< substrate protein remaining % ≤100%) | B (80%< substrate protein remaining % ≤100%)
2 | Cc1sc2ncnc(N3CCN(Cc4ccc5c(c4)C(=O)N(N4CCC(=O)NC4=O)C5=O)CC3)c2c1C [GT-08094, 5-((4-(5,6-dimethylthieno[2,3-d]pyrimidin-4-yl)piperazin-1-yl)methyl)-2-(2,4-dioxotetrahydropyrimidin-1(2H)-yl)isoindoline-1,3-dione] | A (0% ≤ substrate protein remaining % ≤80%) | A (0% ≤ substrate protein remaining % ≤80%) | B (80%< substrate protein remaining % ≤100%) | A (0% ≤ substrate protein remaining % ≤80%) | B (80%< substrate protein remaining % ≤100%) | B (80%< substrate protein remaining % ≤100%)
3 | Cc1ccsc1C1CCN(Cc2ccc3c(c2)C(=O)N(N2CCC(=O)NC2=O)C3=O)CC1 [GT-07306, 2-(2,4-dioxotetrahydropyrimidin-1(2H)-yl)-5-((4-(3-methylthiophen-2-yl)piperidin-1-yl)methyl)isoindoline-1,3-dione] | A (0% ≤ substrate protein remaining % ≤80%) | B (80%< substrate protein remaining % ≤100%) | B (80%< substrate protein remaining % ≤100%) | B (80%< substrate protein remaining % ≤100%) | B (80%< substrate protein remaining % ≤100%) | A (0% ≤ substrate protein remaining % ≤80%)
4 | O=C1CCN(N2Cc3cc(CN4CCN(c5ccc(Cl)nc5)CC4)ccc3C2=O)C(=O)N1 [GT-05435, 1-(5-((4-(6-chloropyridin-3-yl)piperazin-1-yl)methyl)-1-oxoisoindolin-2-yl)dihydropyrimidine-2,4(1H,3H)-dione] | A (0% ≤ substrate protein remaining % ≤80%) | B (80%< substrate protein remaining % ≤100%) | B (80%< substrate protein remaining % ≤100%) | A (0% ≤ substrate protein remaining % ≤80%) | B (80%< substrate protein remaining % ≤100%) | B (80%< substrate protein remaining % ≤100%)
5 | O=C1CCN(N2C(=O)c3ccc(CN4CCC(N5CCc6cc(F)ccc65)CC4)cc3C2=O)C(=O)N1 [GT-05260, 2-(2,4-dioxotetrahydropyrimidin-1(2H)-yl)-5-((4-(5-fluoroindolin-1-yl)piperidin-1-yl)methyl)isoindoline-1,3-dione] | B (80%< substrate protein remaining % ≤100%) | B (80%< substrate protein remaining % ≤100%) | A (0% ≤ substrate protein remaining % ≤80%) | A (0% ≤ substrate protein remaining % ≤80%) | A (0% ≤ substrate protein remaining % ≤80%) | B (80%< substrate protein remaining % ≤100%)
6 | O=C1CCN(N2C(=O)c3ccc(CN4CCN(c5nc(N6CCOCC6)nc6ccsc56)CC4)cc3C2=O)C(=O)N1 [GT-08455, 2-(2,4-dioxotetrahydropyrimidin-1(2H)-yl)-5-((4-(2-morpholinothieno[3,2-d]pyrimidin-4-yl)piperazin-1-yl)methyl)isoindoline-1,3-dione] | A (0% ≤ substrate protein remaining % ≤80%) | A (0% ≤ substrate protein remaining % ≤80%) | B (80%< substrate protein remaining % ≤100%) | B (80%< substrate protein remaining % ≤100%) | B (80%< substrate protein remaining % ≤100%) | A (0% ≤ substrate protein remaining % ≤80%)
7 | CC1(C)CCC(CN2CC3CC2CN3Cc2ccc3c(c2)C(=O)N(N2CCC(=O)NC2=O)C3=O)=C(c2ccc(Cl)cc2)C1 (stereo not drawn) [GT-07334, 5-((5-((4′-chloro-5,5-dimethyl-3,4,5,6-tetrahydro-[1,1′-biphenyl]-2-yl)methyl)-2,5-diazabicyclo[2.2.1]heptan-2-yl)methyl)-2-(2,4-dioxotetrahydropyrimidin-1(2H)-yl)isoindoline-1,3-dione] | B (80%< substrate protein remaining % ≤100%) | A (0% ≤ substrate protein remaining % ≤80%) | B (80%< substrate protein remaining % ≤100%) | A (0% ≤ substrate protein remaining % ≤80%) | B (80%< substrate protein remaining % ≤100%) | B (80%< substrate protein remaining % ≤100%)
8 | Cc1nc(N2CCN(Cc3ccc4c(c3)CN(N3CCC(=O)NC3=O)C4=O)CC2)c2c(-c3ccccc3)csc2n1 [GT-08066, 1-(5-((4-(2-methyl-5-phenylthieno[2,3-d]pyrimidin-4-yl)piperazin-1-yl)methyl)-1-oxoisoindolin-2-yl)dihydropyrimidine-2,4(1H,3H)-dione] | B (80%< substrate protein remaining % ≤100%) | A (0% ≤ substrate protein remaining % ≤80%) | A (0% ≤ substrate protein remaining % ≤80%) | B (80%< substrate protein remaining % ≤100%) | B (80%< substrate protein remaining % ≤100%) | B (80%< substrate protein remaining % ≤100%)
9 | O=C1CCN(N2C(=O)c3ccc(CN4CCC(c5cccc6cnccc56)CC4)cc3C2=O)C(=O)N1 [GT-07688, 2-(2,4-dioxotetrahydropyrimidin-1(2H)-yl)-5-((4-(isoquinolin-5-yl)piperidin-1-yl)methyl)isoindoline-1,3-dione] | A (0% ≤ substrate protein remaining % ≤80%) | B (80%< substrate protein remaining % ≤100%) | B (80%< substrate protein remaining % ≤100%) | B (80%< substrate protein remaining % ≤100%) | B (80%< substrate protein remaining % ≤100%) | B (80%< substrate protein remaining % ≤100%)
10 | O=C1CCN(N2Cc3cc(CN4CCN(c5ncc6ccsc6n5)CC4)ccc3C2=O)C(=O)N1 [GT-08081, 1-(1-oxo-5-((4-(thieno[2,3-d]pyrimidin-2-yl)piperazin-1-yl)methyl)isoindolin-2-yl)dihydropyrimidine-2,4(1H,3H)-dione] | A (0% ≤ substrate protein remaining % ≤80%) | A (0% ≤ substrate protein remaining % ≤80%) | B (80%< substrate protein remaining % ≤100%) | A (0% ≤ substrate protein remaining % ≤80%) | B (80%< substrate protein remaining % ≤100%) | B (80%< substrate protein remaining % ≤100%)
11 | O=C1CCN(N2Cc3cc(CN4CCn5c(nnc5C(F)(F)F)C4)ccc3C2=O)C(=O)N1 [GT-07719, 1-(1-oxo-5-((3-(trifluoromethyl)-5,6-dihydro-[1,2,4]triazolo[4,3-a]pyrazin-7 (8H)-yl)methyl)isoindolin-2-yl)dihydropyrimidine-2,4(1H,3H)-dione] | A (0% ≤ substrate protein remaining % ≤80%) | A (0% ≤ substrate protein remaining % ≤80%) | A (0% ≤ substrate protein remaining % ≤80%) | B (80%< substrate protein remaining % ≤100%) | B (80%< substrate protein remaining % ≤100%) | A (0% ≤ substrate protein remaining % ≤80%)
